Data taken from patent publication US9757378B2, “Methods to modulate acute myeloid leukemia stem/progenitor cell expansion and/or differentiation” (UNIVERSITE DE MONTREAL, priority 2013, dated 2017).
Counter-ions that a name gives are not always drawn.

Legend:
primary human AML cells [1] = test: Secondary screen: dose response, five serial dilutions (CD34/CD15 flow cytometry); format: cell-based; set-up: key to 2ndary screen criteria fulfilled: 0 = no; 1 = yes; settings: for 2ndary screen criteria fulfilled: ≧50% increase CD34+CD15− (%) and cell counts and ≧50% gated cells in at least one dose; for % increase CD34+CD15− (%) 2ndary screen / % increase CD34+CD15− (cell counts) 2ndary screen: at optimal concentration, compared to DMSO
Procedure: In the primary screen cells were plated in transparent 384-wellplates (Greiner, 781182) at a density of 5,000 cells in 50 μl final volume per well. Compounds were tested at 2 μM (commercial libraries) or 1 μg/ml (Medicinal Chemistry Facility, IRIC). […] For validation experiments AML cells were grown in 384-well plates with 3-8 replicates per condition.
Flow cytometry was performed on an LSR™ II cytometer equipped with an HTS-device (BD Bioscience, Primary and Secondary screens and in vitro validation experiments) or on a BD Canto™ II cytometer (BD Bioscience, Xenotransplantation and CellTrace Violet™ experiments). Cells were stained for 30 minutes at 4° C. protected from light if not otherwise indicated (CellTrace Violet™ staining). The following flow cytometry-antibodies were used: CD45 Pacific Blue (BioLegend 304029), CD33 PE (BD Bioscience 555450), CD34 APC (BD Bioscience 555824), CD3 FITC (BD Bioscience 555332), CD19 PE-Cy7 (BD Bioscience 557835), CD15 PE (BD Bioscience 555401), and anti-mouse CD45.1 APC-efluor 730 (eBioscience 47-0453-82). CD34 intensities in flow cytometry plots were set at high levels on day 0 to allow tracing of non-predictable decreases of intensities during 7 days in culture.

primary human AML cells [2] = test: Primary screen: differentiation of primary human AML cells in vitro (CD34/CD15, HTS flow cytometry); settings: for percent gated cells (viability): 2 μM (commercial libraries) or 1 μg/ml (IRIC); for % increase CD34+ (%) / % increase CD34+ (cell counts) / % increase CD34+CD15− (cell counts): compared to DMSO; for % increase CD34+CD15− (%): compared to DMSO ((compound − DMSO)/DMSO*100)
Procedure: AML cells were thawed in 37° C. water bath and 1:10 diluted in prewarmed Iscove's modified Dulbecco's medium (IMDM) containing 20% FBS and DNase 100 μg/ml. […] When compounds were added to the culture medium, final DMSO concentrations were 0.1% in all in vitro experiments and 0.01% when cultured cells were transplanted into NSG-mice.
Compounds were tested at 2 μM (commercial libraries) or 1 μg/ml (Medicinal Chemistry Facility, IRIC). […] For validation experiments AML cells were grown in 384-well plates with 3-8 replicates per condition.
Flow cytometry was performed on an LSR™ II cytometer equipped with an HTS-device (BD Bioscience, Primary and Secondary screens and in vitro validation experiments) or on a BD Canto™ II cytometer (BD Bioscience, Xenotransplantation and CellTrace Violet™ experiments). Cells were stained for 30 minutes at 4° C. protected from light if not otherwise indicated (CellTrace Violet™ staining). […] CD34 intensities in flow cytometry plots were set at high levels on day 0 to allow tracing of non-predictable decreases of intensities during 7 days in culture.

| Molecule | 2ndary screen criteria fulfilled (primary human AML cells [1]) | percent gated cells (viability) (primary human AML cells [2]) | % increase CD34+ (%) (primary human AML cells [2]) | % increase CD34+ (cell counts) (primary human AML cells [2]) | % increase CD34+CD15− (cell counts) (primary human AML cells [2]) | % increase CD34+CD15− (%) (primary human AML cells [2]) | % increase CD34+CD15− (%) 2ndary screen (primary human AML cells [1]) | % increase CD34+CD15− (cell counts) 2ndary screen (primary human AML cells [1]) |
| --- | --- | --- | --- | --- | --- | --- | --- | --- |
| CO[C@H]1C[C@@H]2CC[C@@H](C)[C@@](O)(O2)C(=O)C(=O)N2CCCC[C@H]2C(=O)O[C@H]([C@H](C)C[C@@H]2CC[C@@H](O)[C@H](OC)C2)CC(=O)[C@H](C)/C=C(\C)[C@@H](O)[C@@H](OC)C(=O)[C@H](C)C[C@H](C)/C=C/C=C/C=C/1C [UM0119219, Rapamycin] | 0 | 72.30% | 27.40% | −57.86% | −44.01% | 68.93% |  |  |
| O=C(Nc1ccc2c(c1)OCCO2)c1sc2ccccc2c1Cl [UM0045609, 3-chloro-N-(2,3-dihydro-1,4-benzodioxin-6-yl)-1-benzithiophene-2-carboxamide] | 1 |  | 46.63% | 56.89% | 109.14% | 94.85% | 204.83% | 198.60% |
| C[C@]12CC[C@H](O)C[C@H]1CC[C@@H]1[C@@H]2CC[C@]2(C)[C@@H](C3=CC(=O)OC3)[C@@H](O)C[C@]12O [UM0119342, Gitoxigenin] | 0 | 77.10% | 48.71% | −44.85% | −40.00% | 62.33% |  |  |
| O=c1cc(-c2ccccc2)oc2cc(O)cc(O)c12 [UM0118950, Chrysin] | 1 |  | 47.05% | 48.57% | 108.30% | 105.68% | 194.69% | 172.16% |
| C[C@@H]1Cc2c(Cl)cc(C(=O)N[C@@H](Cc3ccccc3)C(=O)O)c(O)c2C(=O)O1 [UM0119328, Ochratoxin A] | 0 | 82.10% | 14.82% | 1.28% | 34.37% | 52.56% |  |  |
| COc1cccc2oc(-c3ccccc3)cc(=O)c12 [UM0113898, 5-Methoxyflavone] | 1 |  | 36.28% | 20.92% | 61.47% | 82.42% | 105.80% | 119.91% |
| COc1c(O)cc2oc(-c3ccc(O)c(O)c3)cc(=O)c2c1O [UM0119305, 6-Methoxyluteolin] | 0 | 83.60% | 31.39% | −2.77% | 40.01% | 88.83% |  |  |
| Benzalkonium chloride [UM0120664] | 0 |  | 45.92% | −73.74% | −57.89% | 133.07% |  |  |
| COc1ccc(-c2coc3c(O)c(OC)ccc3c2=O)cc1 [UM0121179, Retusin 7-Methylether] | 1 | 82.10% | 58.87% | 59.80% | 125.38% | 124.10% | 218.84% | 199.22% |
| O[C@H]1[C@H]2[C@H](O)CCCN2C[C@H]1O [UM0119223, Swainsonine] | 0 | 81.90% | 30.00% | −43.81% | −22.20% | 79.57% |  |  |
| COc1ccc(-c2oc3cc(O)cc(O)c3c(=O)c2O)cc1 [UM0119298, Kaempferide] | 1 | 82.40% | 42.31% | 25.55% | 75.15% | 98.71% | 105.80% | 114.93% |
| CCCCCCC(=O)CCCCCC/C=C/C[C@@H](O)[C@H](O)[C@@](N)(CO)C(=O)O [UM0119199, Myriocin] | 0 | 79.90% | 1.19% | −36.05% | 9.44% | 72.63% |  |  |
| N[C@@H]1C[C@H]1c1ccccc1 [UM0118428, Tranylcypromine hydrochloride] | 0 | 77.80% | 49.50% | −11.95% | −10.11% | 52.70% |  |  |
| COc1ccc(-c2cc(=O)c3c(O)cc(O)cc3o2)cc1O [UM0119400, Diosmetine] | 0 |  | 31.48% | −19.72% | 20.75% | 97.56% |  |  |
| COC(=O)/C(C)=C\CC12OC(C)(C)C3CC(C=C4C(=O)c5c(OC)c6c(c(CC=C(C)C)c5OC431)OC(C)(CCC=C(C)C)C=C6)C2=O (stereo not drawn) [UM0120889, Dimethyl gambogate] |  |  | 47.72% | −50.44% | −48.79% | 52.62% |  |  |
| COc1ccc(-c2cc(=O)c3ccccc3o2)cc1 [UM0070201, 4′-Methoxyflavone] |  | 78.10% | 28.71% | 20.27% | 58.22% | 69.03% |  |  |
| O=c1cc(-c2ccc(O)c(O)c2)oc2cc(O)cc(O)c12 [UM0118175, Luteolin] |  | 79.80% | 40.48% | 4.97% | 27.50% | 70.76% |  |  |
| CC(C)=CCOc1cc2oc(=O)ccc2cc1O [UM0120947, Prenyletin] |  | 81.10% | 18.10% | 15.58% | 56.71% | 60.33% |  |  |
| C[C@@H]1O[C@@H](O[C@H]2[C@H](Oc3cc(O)c4c(=O)c(O)c(-c5ccc(O)cc5)oc4c3)O[C@H](CO)[C@@H](O)[C@@H]2O)[C@H](O)[C@H](O)[C@H]1O [UM0119289, Kaempferol-7-Neohesperidoside] |  |  | 12.75% | 29.49% | 72.47% | 50.39% |  |  |
| 2′-beta-Dihydrochalcone [UM0120960] |  |  | 24.69% | 8.21% | 41.99% | 63.62% |  |  |
| COc1cc(-c2ccc(N=Nc3ccc4c(S(=O)(=O)[O-])cc(S(=O)(=O)[O-])c(N)c4c3O)c(OC)c2)ccc1N=Nc1ccc2c(S(=O)(=O)[O-])cc(S(=O)(=O)[O-])c(N)c2c1O.[Na+].[Na+].[Na+].[Na+] [UM0118703, Chicago sky blue 6B] |  |  | 42.39% | 31.67% | 42.76% | 54.52% |  |  |
| O=c1cc(-c2ccc(O)cc2)oc2cc(O)cc(O)c12 [UM0118614, Apigenin] |  |  | 20.12% | 22.02% | 66.30% | 63.93% |  |  |
| COc1cc(OC)c2c(=O)c(-c3ccc4c(c3)OCO4)coc2c1 [UM0121218, Derrustone] |  | 83.90% | 21.91% | 25.53% | 58.63% | 53.68% |  |  |
